pKi: −log10 of the molar value.
Molecular target: Type-2 angiotensin II receptor (Sus scrofa)
Assay: Displacement of [125I]Ang2 from AT2 receptor in pig uterus myometrium

SMILES	pKi
CC[C@H](C)[C@@H]1Nc2c(Cc3ccc(O)cc3)cc(NC(=O)[C@H](CCCN=C(N)N)NC(=O)[C@@H](N)CC(=O)O)cc2CN(CC(=O)N[C@@H](Cc2cnc[nH]2)C(=O)N2CCC[C@H]2C(=O)N[C@@H](Cc2ccccc2)C(=O)O)C1=O [(3S)-3-amino-3-{[(1S)-1-{[(2S)-2-[(2S)-butan-2-yl]-4-({[(2S)-1-[(2S)-2-{[(1S)-1-carboxy-2-phenylethyl]carbamoyl}pyrrolidin-1-yl]-3-(1H-imidazol-4-yl)-1-oxopropan-2-yl]carbamoyl}methyl)-9-[(4-hydroxyphenyl)methyl]-3-oxo-2,3,4,5-tetrahydro-1H-1,4-benzodiazepin-7-yl]carbamoyl}-4-[(diaminomethylidene)amino]butyl]carbamoyl}propanoic acid]	8.33
CC[C@H](C)[C@@H]1Nc2c(Cc3ccc(O)cc3)cc(NC(=O)[C@H](CCCN=C(N)N)NC(=O)[C@@H](N)CC(=O)O)cc2CN(CC(=O)N2CCC[C@H]2C(=O)N[C@@H](Cc2ccccc2)C(=O)O)C1=O [(3S)-3-amino-3-{[(1S)-1-{[(2S)-2-[(2S)-butan-2-yl]-4-{2-[(2S)-2-{[(1S)-1-carboxy-2-phenylethyl]carbamoyl}pyrrolidin-1-yl]-2-oxoethyl}-9-[(4-hydroxyphenyl)methyl]-3-oxo-2,3,4,5-tetrahydro-1H-1,4-benzodiazepin-7-yl]carbamoyl}-4-[(diaminomethylidene)amino]butyl]carbamoyl}propanoic acid]	7.27

Source: BindingDB's records for doi:10.1021/jm051222g (Uppsala University, 2006)
